Data from the supplement of paper PMC10307832.

Key:
Assay in all cases: relative viability (nuclei count vs DMSO), 5 days (fraction); higher = more cells survive
[1] = compound: C(C(=O)C(=O)O)Br [Bromopyruvate] + C[C@]1(O)C[C@@H](c2nc(-c3ccc4ccc(-c5ccccc5)nc4c3)c3c(N)nccn32)C1 [Linsitinib] (partner 1 µM)
In short: (§1)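 Lung cancer cell lines were pin-tool dosed in 1536-well plates on the day after seeding, with either a lone drug or a fixed anchor-drug dose plus five library-drug doses (not always all listed) in √10 steps. Nuclei were counted on 4× images after 5 days. Relative viability is the ratio of treated-well to vehicle-well nuclei counts, with each value a median of duplicate plates.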

[2] = compound: C(C(=O)C(=O)O)Br [Bromopyruvate] + Cc1nc(Nc2ncc(C(=O)Nc3c(C)cccc3Cl)s2)cc(N2CCN(CCO)CC2)n1 [Dasatinib] (partner 0.075 µM)
In short: as §1

[3] = compound: C(C(=O)C(=O)O)Br [Bromopyruvate] + Nc1nc2[nH]cc(CCc3ccc(C(=O)N[C@@H](CCC(=O)O)C(=O)O)cc3)c2c(=O)[nH]1 [Pemetrexed] (partner 0.2 µM)
In short: as §1

[4] = compound: CC(O)(CS(=O)(=O)c1ccc(F)cc1)C(=O)Nc1ccc(C#N)c(C(F)(F)F)c1 [Bicalutamide] + CS(=O)(=O)CCNCc1ccc(-c2ccc3ncnc(Nc4ccc(OCc5cccc(F)c5)c(Cl)c4)c3c2)o1 [Lapatinib] (partner 2 µM)
In short: as §1

Cell Line	relative viability ([1]; first compound 1 µM)	relative viability ([1]; first compound 3.162 µM)	relative viability ([1]; first compound 10 µM)	relative viability ([1]; first compound 31.62 µM)	relative viability ([1]; first compound 100 µM)	relative viability ([2]; first compound 1 µM)	relative viability ([2]; first compound 3.162 µM)	relative viability ([2]; first compound 10 µM)	relative viability ([2]; first compound 31.62 µM)	relative viability ([2]; first compound 100 µM)	relative viability ([3]; first compound 1 µM)	relative viability ([3]; first compound 3.162 µM)	relative viability ([3]; first compound 10 µM)	relative viability ([3]; first compound 31.62 µM)	relative viability ([3]; first compound 100 µM)	relative viability ([4]; first compound 0.08 µM)	relative viability ([4]; first compound 0.253 µM)	relative viability ([4]; first compound 0.8 µM)	relative viability ([4]; first compound 2.53 µM)
NCI-H1755	1.01	1.03	0.984	0.984	0.985	0.439	0.46	0.469	0.464	0.475	0.44	0.441	0.371	0.475	0.52	1.03	1.06	1.05	0.928
HARA	0.978	1.01	1.01	0.932	1.02	0.216	0.297	0.241	0.282	0.362	0.275	0.232		0.219	0.271	0.841	0.514	0.904	0.701
NCI-H647	1.03	1.48	1.55	1.15	0.806	0.156	0.218	0.215	0.187	0.169	0.17	0.162	0.156	0.184	0.177	1.07	0.954	1.75	0.748
NCI-H1563	1.19	1.42	1.16	1.23	1.07	0.487	0.47	0.563	0.402	0.426	0.815	0.717	0.823	0.674	0.757	1.19	0.853	0.984	0.776
NCI-H2347	0.995	0.989	1.21	0.756	1.08	0.331	0.297	0.322	0.292	0.278	0.42	0.471	0.486	0.44	0.43	1.11	0.935	0.989	0.784
LCLC-97TM1			0.22	0.198	0.162	0.74	0.898	0.835	0.763	0.957	0.182	0.152	0.187	0.164	0.195	0.857	0.971	1.1	1
EPLC-272H	1.06	1.14	1.13	1.19	1.3	0.354	0.309	0.462	0.374	0.455	0.367	0.259	0.334	0.251	0.432	0.788	0.771	0.92	0.875
NCI-H1915	1.12	1.15	1.09	1.09	1.1	0.331	0.326	0.319	0.275	0.315	0.496	0.41	0.497	0.511	0.481	0.933	0.933	1.06	0.882
NCI-H3122	1.02	1.02	1.03	0.987	0.941	0.936	0.871	1.22	0.765	0.882	0.209	0.193	0.186	0.183	0.192	0.983	0.962	1.04	1.04
